Patent US7645882B2, “Inhibitor of protein modification products formation” (priority 2003, dated 2010)

Tested on: pentosidine
Test: Pentosidine production inhibiting effect with BSA and arabinose
Type: biochemical
Conditions: BSA and arabinose instead of plasma
Procedure: Fresh heparinized plasma samples were obtained after informed consent from hemodialysis patients prior to the dialysis session, and filtrated and sterilized. To the plasma (450 μL), there was added the solution of TM-2002 in dimethylsurphoxide (50 μL) (final concentration: 0.8, 2.0, 5.0 mM) incubated at 37° C. for one week. Then, the amount of pentosidine was measured.
Measurement of the amount of pentosidine was made as follows: to each incubated sample (50 μL) was added an equal volume of 10% trichloroacetic acid, followed by centrifugation at 5000 g for 5 minutes; after removal of the supernatant, the pellet was washed by 5% trichloroacetic acid (300 μL); the pellet was dried under reduced pressure and then subjected to hydrolysis in 6N HCl solution (100 μL) at 110° C. under nitrogen atmosphere for 16 hours; to the hydrolysate, 5N NaOH (100 μL) and 0.5 M phosphate buffer (pH 7.4) (200 μL) were added, followed by filtration through a porefilter with a pore size of 0.5 μm and dilution with PBS. The concentration of free pentosidine was determined by reversed-phase HPLC using a fluorescence detector (Miyata, T. et al.: Proc. Natl. Acad. Sci. USA, Vol. 93, p. 2353-2358, 1996). The effluent was monitored at 335/385 nm of excitation/emission wavelength. Synthetic pentosidine was used as the standard. The detection limit of pentosidine was 0.1 pmol/mg protein.
The plasma from patients was substituted to BSA and arabinose, and the pentosidine production inhibiting effect of another compounds (I) or (II) was measured in the same manner as [Test Examination 1]. Therein, “-” means that the examination was not carried out.

SMILES | Pentosidine production rate in 5 mM of medicament (%)
CC1=NN(c2ccccc2)C(=O)C12C(c1ccccc1)C21C(=O)N(c2ccccc2)N=C1C (stereo not shown) [compound 30, 4,10-dimethyl-2,8,11-triphenyl-2,3,8,9-tetraza-dispiro[4.0.4.1]undeca-3,9-diene-1,7-dione] | 62.43
CCOc1cc(/C=C2/C(=O)N(c3ccccc3Cl)N=C2C)ccc1O [compound 31, 2-(2-chloro-phenyl)-4-(3-ethoxy-4-hydroxy-benzylidene)-5-methyl-2,4-dihydro-pyrazol-3-one] | 15.57
CC1=NN(c2ccccc2Cl)C(=O)/C1=C/c1ccc(N(C)C)cc1 [compound 32, 2-(2-chloro-phenyl)-4-(4-dimethylamino-benzylidene)-5-methyl-2,4-dihydro-pyrazol-3-one] | 8.7
CC1=NN(c2cccc(C(F)(F)F)c2)C(=O)/C1=C/C=C/c1ccccc1 [compound 33, 5-methyl-4-(3-phenyl-allylidene)-2-(3-trifluoromethyl-phenyl)-2,4-dihydro-pyrazol-3-one] | 80.08
CC1=NN(c2cccc(F)c2)C(=O)/C1=C\c1ccc(N(C)C)cc1 [compound 35, 4-(4-dimethylamino-benzylidene)-2-(3-fluoro-phenyl)-5-methyl-2,4-dihydro-pyrazol-3-one] | 76.31
CC1=NN(c2cccc(C(=O)O)c2)C(=O)/C1=C\c1ccc(N2CCC(Cl)=N2)cc1 [compound 36, 3-{4-[4-(3-chloro-4,5-dihydro-pyrazol-1-yl)-benzylidene]-3-methyl-5-oxo-4,5-dihydro-pyrazol-1-yl}-benzoic acid] | 26.37
O=C(O)c1cccc(N2N=C(c3ccccc3)/C(=C/c3ccccc3O)C2=O)c1 [compound 37, 3-[4-(2-hydroxy-benzylidene)-5-oxo-3-phenyl-4,5-dihydro-pyrazol-1-yl]-benzoic acid] | 0.02
CC1=NN(c2cccc(Cl)c2)C(=O)/C1=C/c1cc2ccccc2[nH]c1=O [compound 38, 3-[1-(3-chloro-phenyl)-3-methyl-5-oxo-1,5-dihydro-pyrazol-4-ylidene-methyl]-1H-quinolin-2-one] | 84.95
COC(=O)c1cccc(-c2ccc(/C=C3\C(=O)N(c4ccc(S(N)(=O)=O)cc4)N=C3C)o2)c1 [compound 39, 3-{5-[3-methyl-5-oxo-1-(4-sulfamoyl-phenyl)-1,5-dihydro-pyrazol-4-ylidene-methyl]-furan-2-yl}-benzoic acid-methyl ester] | 16.87
COC(=O)c1ccc(N2N=C(C)/C(=C/c3ccc4c(c3)OCO4)C2=O)cc1 [compound 40, 4-(4-benzo[1,3]dioxol-5-ylmethylene-3-methyl-5-oxo-4,5-dihydro-pyrazol-1-yl)-benzoic acid-methyl ester] | 32.37
COC(=O)c1ccc(N2N=C(C)/C(=C/c3ccc(-c4ccc(S(N)(=O)=O)cc4)o3)C2=O)cc1 [compound 41, 4-{3-methyl-5-oxo-4-[5-(4-sulfamoyl-phenyl)-furan-2-yl-methylene]-4,5-dihydro-pyrazol-1-yl}-benzoic acid-methyl ester] | 37.81
CC1=NN(c2ccc(Cl)cc2)C(=O)/C1=C/c1ccc(O)cc1O [compound 42, 2-(4-chloro-phenyl)-4-(2,4-dihydroxy-benzylidene)-5-methyl-2,4-dihydro-pyrazol-3-one] | 68.32
CC1=NN(c2ccc(Cl)cc2)C(=O)/C1=C/c1cccc(O)c1 [compound 43, 2-(4-chloro-phenyl)-4-(3-hydroxy-benzylidene)-5-methyl-2,4-dihydropyrazol-3-one] | 3.00
CC1=NN(c2ccc(C)cc2)C(=O)/C1=C/c1ccc(O)c(O)c1 [compound 44, 4-(3,4-dihydroxy-benzylidene)-5-methyl-2-p-toluyl-2,4-dihydro-pyrazol-3-one] | 66.19
CC(=O)c1ccc(N2N=C(C)/C(=C3\C(=O)Nc4ccccc43)C2=O)cc1 [compound 45, 3-[1-(4-acetyl-phenyl)-3-methyl-5-oxo-1,5-dihydro-pyrazol-4-ylidene]-1,3-dihydro-indol-2-one] | 19.22
CC1=NN(c2ccc(F)cc2)C(=O)/C1=C\c1c(C)nn(-c2ccccc2C)c1O [compound 46, 2-(4-fluoro-phenyl)-4-(5-hydroxy-3-methyl-1-o-toluyl-1H-pyrazol-4-yl-methylene)-5-methyl-2,4-dihydro-pyrazol-3-one] | 15.69

SMILES | Pentosidine production rate in 5 mM of medicament (%)
COc1cc(/C=C2\C(=O)N(c3ccc(Cl)cc3)N=C2C(F)(F)F)ccc1O [compound 47, 2-(4-chloro-phenyl)-4-(4-hydroxy-3-methoxy-benzylidene)-5-trifluoromethyl-2,4-dihydro-pyrazol-3-one] | 28.86
CCc1ccc(N2N=C(C)/C(=C\c3ccc(O)cc3)C2=O)cc1 [compound 48, 2-(4-ethyl-phenyl)-4-(4-hydroxy-benzylidene)-5-methyl-2,4-dihydro-pyrazol-3-one] | 0.02
CC1=NN(c2ccc(S(N)(=O)=O)cc2)C(=O)C1=Cc1ccc(O)cc1 [compound 49, 4-[4-(4-hydroxy-benzylidene)-3-methyl-5-oxo-4,5-dihydro-pyrazol-1-yl]-benzenesulfonamide] | 7.09
CCOC(=O)c1ccc(N2N=C(C(F)(F)F)/C(=C/c3cccs3)C2=O)cc1 [compound 50, 4-(5-oxo-4-thiophene-2-yl-methylene-3-trifluoromethyl-4,5-dihydro-pyrazol-1-yl)-benzoic acid-ethyl ester] | 63.17
CN(C)c1ccc(/C=C2\C(=O)N(c3ccc(S(N)(=O)=O)cc3)N=C2C(F)(F)F)cc1 [compound 51, 4-[4-(4-dimethylamino-benzylidene)-5-oxo-3-trifluoromethyl-4,5-dihydro-pyrazole-1-yl]-benzenesulfonamide] | 41.68
O=C1/C(=C\c2ccc(O)cc2)C(C(F)(F)F)=NN1c1ccccc1 [compound 53, 4-(4-hydroxy-benzylidene)-2-phenyl-5-trifluoromethyl-2,4-dihydro-pyrazol-3-one] | 66.76
CC1=NN(c2ccc(C)c(C)c2)C(=O)/C1=C\c1ccc(O)cc1O [compound 54, 4-(2,4-dihydroxy-benzylidene)-2-(3,4-dimethyl-phenyl)-5-methyl-2,4-dihydro-pyrazol-3-one] | 73.48
COc1ccc(/C=C2/C(=O)N(c3ccccc3)N=C2C)c(OC)c1O [compound 59, 4-(3-hydroxy-2,4-dimethoxy-benzylidene)-5-methyl-2-phenyl-2,4-dihydro-pyrazol-3-one] | 5.3
COc1cc(/C=C2/C(=O)N(c3ccc(C(=O)OC(C)C)cc3)NC2C)ccc1O (stereo not shown) [compound 60, 4-[4-(4-hydroxy-3-methoxy-benzylidene)-3-methyl-5-oxo-pyrazolidin-1-yl]-benzoic acid-isopropyl ester] | 9.02
COc1cc(/C=C2/C(=O)N(c3ccc(Cl)c(C(=O)O)c3)N=C2C)c(Cl)cc1O [compound 61, 2-chloro-5-[4-(2-chloro-4-hydroxy-5-methoxy-benzylidene)-3-methyl-5-oxo-4,5-dihydro-pyrazol-1-yl]-benzoic acid] | 46.25
CC1=NN(c2ccccc2)C(=O)/C1=C/N(C)C [compound 65, 4-dimethylaminomethylene-5-methyl-2-phenyl-2,4-dihydro-pyrazol-3-one] | 62.43
CC1=NN(c2ccccc2)C(=O)/C1=C/c1c(C)nn(-c2ccccc2)c1O [compound 66, 4-(5-hydroxy-3-methyl-1-phenyl-1H-pyrazol-4-yl-methylene)-5-methyl-2-phenyl-2,4-dihydro-pyrazol-3-one] | 15.17
CC1=NN(c2ccccc2)C(=O)/C1=C/c1ccc(Cl)cc1 [compound 67, 4-(4-chloro-benzylidene)-5-methyl-2-phenyl-2,4-dihydro-pyrazol-3-one] | 9.09
CC1=NN(c2ccccc2)C(=O)/C1=C/c1ccc(O)cc1 [compound 70, 4-(4-hydroxy-benzylidene)-5-methyl-2-phenyl-2,4-dihydro-pyrazol-3-one] | 0.04
CC1=NN(c2cccc(Cl)c2)C(=O)/C1=C/c1ccc(O)cc1 [compound 71, 2-(3-chloro-phenyl)-4-(4-hydroxy-benzylidene)-5-methyl-2,4-dihydropyrazol-3-one] | 4.63
